Like-named read-outs stand apart in the source and are kept apart here.
Tests used:
human CRF1 receptors [1] = molecular target: T1, human CRF1 receptors (Homo sapiens, UniProt P34998); experiment: Competition binding of [125I]-Tyr0 sauvagine under equilibrium conditions (secondary assay); conditions: [125I]-Tyr0 sauvagine competition, HEK 293 membranes expressing CRF1 receptors
T1 construct: expressed in transfected cells
T1 sequence (P34998 24-415): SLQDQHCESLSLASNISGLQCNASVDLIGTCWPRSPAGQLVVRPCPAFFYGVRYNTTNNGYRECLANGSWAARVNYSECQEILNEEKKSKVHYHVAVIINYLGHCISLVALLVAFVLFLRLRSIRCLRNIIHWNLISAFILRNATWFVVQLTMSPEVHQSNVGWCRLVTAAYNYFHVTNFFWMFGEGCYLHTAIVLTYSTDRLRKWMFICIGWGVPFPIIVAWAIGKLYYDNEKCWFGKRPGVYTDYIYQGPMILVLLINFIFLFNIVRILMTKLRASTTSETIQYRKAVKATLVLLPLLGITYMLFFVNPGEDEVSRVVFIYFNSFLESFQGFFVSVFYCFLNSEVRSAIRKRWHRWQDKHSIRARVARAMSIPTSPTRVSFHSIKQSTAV
Method: In the second assay, the inhibitory effects measured by the lead compounds were compared to those of the standard drug antalarmin.
Figure 6 Competitive binding isotherms of compounds 2, 5, and 14 (a), compounds 10 and 23 (b), compounds 19 and 20 (c) and 21 and 22 (d) to human CRF1 receptors. Antalarmin was used as a standard drug.
In this competitive binding assay, different and increasing concentrations of the test compounds were used. The final volume of the tubes was adjusted to 0.2 mL using buffer B (the composition mentioned earlier). The test mixtures were then incubated at a temperature of 21 °C for a period of two hours. Then it was filtered through presoaked Whatman 934AH filter papers (in a solution of 0.3% polyethylene imine for 1 h at a temperature of 4 °C). The filter papers were then washed with a solution of 0.5 mL of ice-cold PBS containing 0.01% Triton X-100, and the washing process was repeated three times at pH 7.1. To measure the radioactivity, a gamma radiation counter was utilized. The quantity of membranes used was adjusted to make sure that the specific binding is always equal to or less than 10% of the total concentration of the added radiolabeled sauvagine. The specific [^125I]-Tyr^0-sauvagine binding was defined as the total binding minus the non-specific binding in the presence of 1000 nM of the standard antagonist Antalarmin. Non-linear regression analysis was used for data analysis, and Log IC50 values for the test compounds in comparison to the standard antagonist antalarmin were calculated by fitting the data from the competition studies into a one-site competition model. The statistical analysis was performed using Prism 4.0 (GraphPad Software, San Diego, CA, USA).
Statistical analysis was performed using Prism 4.0 (Graph Pad Software, San Diego, CA, USA). Non-linear regression analysis was used in the competitive binding studies. Log IC50 values were calculated by fitting the data from the competition studies to a one-site competition model.

human CRF1 receptors [2] = molecular target: T1, human CRF1 receptors; experiment: Primary screening: inhibition of specific [125I]-Tyr0 sauvagine binding at a single concentration of 100 nM; conditions: 100 nM test compound; membranes from HEK 293 cells stably expressing CRF1 receptors
Method: An investigation of the specific binding was carried out in membrane homogenates extracted from human embryonic kidney (HEK 293) cells stably expressing CRF1 receptors, a standard methodology previously detailed in several of our published works. This experimental approach closely adheres to the original Gkountelias et al. procedure.
The CRF1 receptor binding affinities for final target compounds 1–23 were evaluated. First, the ability of the entire test compounds to inhibit the specific binding of the radiolabelled ligand [^125I]-Tyr^0 sauvagine to membranes from HEK 293 cells stably expressing the CRF1 receptors was evaluated at a single concentration of 100 nM.
Figure 5 % inhibition of [^125I]-Try^0 sauvagine-specific binding by 100 nM of test compounds on membranes from HEK293 stably expressing human CRF1 receptors. In the absence of the test compound, the inhibition is 0%.
In this protocol, a radiolabeled agonist, which is [^125I]-Tyr^0-sauvagine is used. The cell culture medium that was used to grow these cells consisted of DMEM/F12 (1:1) supplemented with 10% bovine calf serum, 3.15 g/L glucose, and […] of the antibiotic geneticin. The cells were then incubated at a temperature of 37 °C with 5% CO2. After a suitable time was given to grow the expected number of cells to the required cell density, the cells were washed with phosphate-buffered saline (PBS) at a neutral pH of 7.2–7.3. This was followed by treatment with 2 mM EDTA containing PBS (PBS/EDTA). The suspension of cells was pitted under centrifugation at a speed of 1000× g for a period of 5 min, after which the resulting pellets were allowed to be homogenized in 1.5 mL of buffer H with the following composition: 20 mM HEPES, 10 mM MgCl2, 2 mM EGTA, 0.2 mg/mL bacitracin antibiotic, and 0.93 mg/mL aprotinin at pH 7.2 at 4 °C. The homogenizer used was a Janke & Kunkel IKA Ultra Turrax T25 homogenizer (IKA Werke GmbH & Co. KG, Staufen, Germany). The homogenates were then put into a centrifuge to be centrifuged at a speed of 16,000× g, for a period of 10 min, at 4 °C. The resulting membrane pellets were again suspended in a homogenizer in 1 mL of buffer B, which is buffer H containing BSA (0.1%) at a pH of 7.2 at 20 °C. After that, the membrane suspensions were diluted using buffer B and 50 μL aliquots of the suspensions and 20–25 pM of the radiolabeled ligand [^125I]-Tyr^0sauvagine with (test) and then without (positive control) the compounds to be evaluated at a single concentration of 100 nM.

CRF1R = test system: CRF1R; parameters: method as in PMID 7846062; conditions: cited from earlier work

Compound	IC50 (human CRF1 receptors [1]; Log IC50 as printed (negative sign), read-out: Log IC50 ± SE (converted))	IC50 (human CRF1 receptors [1]; read-out: IC50)	inhibition at 0.1 µM (human CRF1 receptors [2])	% inhibition of [125I]-Tyr0 sauvagine-specific binding (human CRF1 receptors [2])	binding affinity to CRF1R relative to binding to CRF2R (CRF1R)
CCCN(CCC)c1nc(C)nc2c1sc(=NC)n2-c1ccc(Cl)cc1Cl [Compound 2, 7-(N,N-Dipropylamino)-2-(methylimino)-5-methyl-3-(2,4-dichlorophenyl)-2,3-dihydrothiazolo[4,5-d]pyrimidine]	6.03 nM	6.1 nM	> 50%		
CCCN(CC1CC1)c1nc(C)nc2c1s/c(=N\C)n2-c1ccc(Cl)cc1Cl [Compound 5, 7-(N-Propyl-N-(cyclopropylmethyl))amino-2-(methylimino)-5-methyl-3-(2,4-dichlorophenyl)-2,3-dihydrothiazolo[4,5-d]pyrimidine]		11.1 nM	> 50%	significantly higher inhibitory effects than compounds 9 and 17	
CN=c1sc2c(N(CCOC)CCOC)nc(C)nc2n1-c1ccc(C(C)C)cc1Br [Compound 10, 7-(N,N-Bis(2-methoxyethyl)amino)-2-(methylimino)-5-methyl-3-(2-bromo-4-isopropylphenyl)-2,3-dihydrothiazolo[4,5-d]pyrimidine]		31 nM	> 50%		
CCCCCN(CCCCC)c1nc(C)nc2c1sc(=NC)n2-c1ccc(C(C)C)cc1Br [Compound 11, 7-(N,N-Dipentylamino)-2-(methylimino)-5-methyl-3-(2-bromo-4-isopropylphenyl)-2,3-dihydrothiazolo[4,5-d]pyrimidine]				reduced activity compared to compounds 10 and 13	
CCCCN(CC)c1nc(C)nc2c1sc(=NC)n2-c1ccc(C)cc1C [Compound 14, 7-(N-Butyl-N-ethylamino)-2-(methylimino)-5-methyl-3-(2,4-dimethylphenyl)-2,3-dihydrothiazolo[4,5-d]pyrimidine]		144 nM	> 50%		
CCCC(CCC)Nc1nc(C)nc2c1sc(=NC)n2-c1ccc(C)cc1C [Compound 19, 7-(N-Heptan-4-yl)amino-2-(methylimino)-5-methyl-3-(2,4-dimethylphenyl)-2,3-dihydrothiazolo[4,5-d]pyrimidine]		41.1 nM	> 50%		
CCCCN(CC)c1nc(C)nc2c1sc(=NC)n2-c1ccc(OC)cc1C [Compound 20, 7-(N-Butyl-N-ethylamino)-2-(methylimino)-5-methyl-3-(2-methyl-4-methoxylphenyl)-2,3-dihydrothiazolo[4,5-d]pyrimidine]		9.16 nM	> 50%		
CCCN(CCC)c1nc(C)nc2c1sc(=NC)n2-c1ccc(OC)cc1C [Compound 21, 7-(N,N-Dipropylamino)-2-(methylimino)-5-methyl-3-(2-methyl-4-methoxylphenyl)-2,3-dihydrothiazolo[4,5-d]pyrimidine]		13.1 nM	> 50%		
CCCN(CC1CC1)c1nc(C)nc2c1s/c(=N\C)n2-c1ccc(OC)cc1C [Compound 22, 7-(N-Propyl-N-(cyclopropylmethyl))amino-2-(methylimino)-5-methyl-3-(2-methyl-4-methoxylphenyl)-2,3-dihydrothiazolo[4,5-d]pyrimidine]		91.6 nM	> 50%	significantly higher inhibitory effects than compounds 9 and 17	
CCC(CC)Nc1nc(C)nc2c1sc(=NC)n2-c1ccc(OC)cc1C [Compound 23, 7-(N-Pentan-3-yl)amino-2-(methylimino)-5-methyl-3-(2-methyl-4-methoxylphenyl)-2,3-dihydrothiazolo[4,5-d]pyrimidine]		111 nM	> 50%		
CCCCN(CC)c1nc(C)nc2c1c(C)c(C)n2-c1c(C)cc(C)cc1C [antalarmin, reference compound]		16.6 nM			
Corticotropin-releasing factor [CRF]					almost eight times higher

From paper PMC11314199, “Design, Synthesis, and Biological Evaluations of Novel Thiazolo[4,5-d]pyrimidine Corticotropin Releasing Factor (CRF) Receptor Antagonists as Potential Treatments for Stress Related Disorders and Congenital Adrenal Hyperplasia (CAH)” (Molecules, 2024)
